Values quoted from earlier work as cited in patent publication US20140332438A1, “WATER-SOLUBLE MELOXICAM GRANULES” (Boehringer Ingelheim Vetmedica GmbH, priority 2002, published 2014).

Conditions: aqueous solution, according to EP-A-0 945 134

## Cc1cnc(NC(=O)C2=C(O)c3ccccc3S(=O)(=O)N2C)s1 [meloxicam, 4-hydroxy-2-methyl-N-(5-methyl-2-thiazolyl)-2H-1,2-benzothiazine-3-carboxamide-1,1-dioxide]
  solubility in water: does not dissolve readily in water
